From ChEMBL document CHEMBL4732126, “Design, synthesis, and biodistribution studies of new analogues of marine alkaloids: Potent in vitro and in vivo fungicidal agents against Candida spp” (Eur J Med Chem, 2021)
Converted amounts (≈) assume the structure as drawn.

Experiments:
Format in all cases: functional
Candida tropicalis [1] = assay: Antifungal activity against Candida tropicalis ATCC 28707 assessed as reduction in fungal growth incubated for 48 hrs by broth microdilution method
Candida albicans [2] = assay: Antifungal activity against Candida albicans isolate 10 assessed as reduction in fungal growth incubated for 48 hrs by broth microdilution method
Candida albicans [3] = assay: Antifungal activity against Candida albicans isolate 8 assessed as reduction in fungal growth incubated for 48 hrs by broth microdilution method
Candida albicans [4] = assay: Antifungal activity against Candida albicans ATCC 18804 assessed as reduction in fungal growth incubated for 48 hrs by broth microdilution method
Candida tropicalis [5] = assay: Fungicidal activity against Candida tropicalis ATCC 28707 assessed as fungal killing incubated for 48 hrs followed by plating on SD agar plate; settings: for MFC: read-out: MFC99.9
Candida albicans [6] = assay: Antifungal activity against Candida albicans ATCC 10231 assessed as reduction in fungal growth incubated for 48 hrs by broth microdilution method
Nakaseomyces glabratus [7] = assay: Antifungal activity against Candida glabrata ATCC 2001 assessed as reduction in fungal growth incubated for 48 hrs by broth microdilution method
Candida albicans [8] = assay: Antifungal activity against Candida albicans isolate 7 assessed as reduction in fungal growth incubated for 48 hrs by broth microdilution method
Pichia kudriavzevii [9] = assay: Antifungal activity against Candida krusei ATCC 34135 assessed as reduction in fungal growth incubated for 48 hrs by broth microdilution method
Candida albicans [10] = assay: Antifungal activity against Candida albicans isolate 13 assessed as reduction in fungal growth incubated for 48 hrs by broth microdilution method
Candida albicans [11] = assay: Antifungal activity against Candida albicans isolate 11 assessed as reduction in fungal growth incubated for 48 hrs by broth microdilution method
Candida albicans [12] = assay: Antifungal activity against Candida albicans isolate 6 assessed as reduction in fungal growth incubated for 48 hrs by broth microdilution method
Candida albicans [13] = assay: Antifungal activity against Candida albicans isolate 9 assessed as reduction in fungal growth incubated for 48 hrs by broth microdilution method
Candida albicans [14] = assay: Antifungal activity against Candida albicans isolate 12 assessed as reduction in fungal growth incubated for 48 hrs by broth microdilution method
Pichia kudriavzevii [15] = assay: Antifungal activity against Candida krusei ATCC 34135 assessed as reduction in fungal growth incubated for 48 hrs in presence of sorbitol by broth microdilution method
Candida tropicalis [16] = assay: Antifungal activity against Candida tropicalis ATCC 28707 assessed as reduction in fungal growth incubated for 48 hrs in presence of sorbitol by broth microdilution method
Nakaseomyces glabratus [17] = assay: Antifungal activity against Candida glabrata ATCC 2001 assessed as reduction in fungal growth incubated for 48 hrs in presence of sorbitol by broth microdilution method
Candida albicans [18] = assay: Antifungal activity against Candida albicans ATCC 10231 assessed as reduction in fungal growth incubated for 48 hrs in presence of sorbitol by broth microdilution method
Pichia kudriavzevii [19] = assay: Fungicidal activity against Candida krusei ATCC 34135 assessed as fungal killing incubated for 48 hrs followed by plating on SD agar plate
Candida albicans [20] = assay: Fungicidal activity against Candida albicans isolate 12 assessed as fungal killing incubated for 48 hrs followed by plating on SD agar plate
Candida albicans [21] = assay: Fungicidal activity against Candida albicans isolate 10 assessed as fungal killing incubated for 48 hrs followed by plating on SD agar plate
Candida albicans [22] = assay: Fungicidal activity against Candida albicans isolate 7 assessed as fungal killing incubated for 48 hrs followed by plating on SD agar plate
Candida albicans [23] = assay: Fungicidal activity against Candida albicans isolate 9 assessed as fungal killing incubated for 48 hrs followed by plating on SD agar plate
Candida albicans [24] = assay: Fungicidal activity against Candida albicans isolate 6 assessed as fungal killing incubated for 48 hrs followed by plating on SD agar plate
Candida albicans [25] = assay: Fungicidal activity against Candida albicans isolate 11 assessed as fungal killing incubated for 48 hrs followed by plating on SD agar plate
Nakaseomyces glabratus [26] = assay: Fungicidal activity against Candida glabrata ATCC 2001 assessed as fungal killing incubated for 48 hrs followed by plating on SD agar plate
Candida albicans [27] = assay: Fungicidal activity against Candida albicans ATCC 18804 assessed as fungal killing incubated for 48 hrs followed by plating on SD agar plate
Candida albicans [28] = assay: Fungicidal activity against Candida albicans ATCC 10231 assessed as fungal killing incubated for 48 hrs followed by plating on SD agar plate
Candida albicans [29] = assay: Fungicidal activity against Candida albicans isolate 13 assessed as fungal killing incubated for 48 hrs followed by plating on SD agar plate
Pichia kudriavzevii [30] = assay: Antifungal activity against Candida krusei ATCC 34135 assessed as reduction in fungal growth incubated for 48 hrs in presence of ergosterol by broth microdilution method
Candida albicans [31] = assay: Fungicidal activity against Candida albicans isolate 8 assessed as fungal killing incubated for 48 hrs followed by plating on SD agar plate
Nakaseomyces glabratus [32] = assay: Antifungal activity against Candida glabrata ATCC 2001 assessed as reduction in fungal growth incubated for 48 hrs in presence of ergosterol by broth microdilution method
Candida albicans [33] = assay: Antifungal activity against Candida albicans ATCC 10231 assessed as reduction in fungal growth incubated for 48 hrs in presence of ergosterol by broth microdilution method
Candida tropicalis [34] = assay: Antifungal activity against Candida tropicalis ATCC 28707 assessed as reduction in fungal growth incubated for 48 hrs in presence of ergosterol by broth microdilution method
Candida albicans [35] = assay: Antibiofilm activity against Candida albicans ATCC 10231 assessed as reduction in mature biofilm at 125 ug/ml incubated for 48 hrs by crystal violet staining based spectrophotometric analysis relative to control; settings: dose 125.0 µg/ml

Compound | MIC (Candida tropicalis [1]) | MIC (Candida albicans [2]) | MIC (Candida albicans [3]) | MIC (Candida albicans [4]) | MFC (Candida tropicalis [5]) | MIC (Candida albicans [6]) | MIC (Nakaseomyces glabratus [7]) | MIC (Candida albicans [8]) | MIC (Pichia kudriavzevii [9]) | MIC (Candida albicans [10]) | MIC (Candida albicans [11]) | MIC (Candida albicans [12]) | MIC (Candida albicans [13]) | MIC (Candida albicans [14]) | also measured
[N-]=[N+]=NCCCCCCCCCCCCOCCCc1cccnc1 | 40 µg/mL (≈ 115 µM) | > 500 µg/mL | > 500 µg/mL | > 500 µg/mL | 160 µg/mL (≈ 462 µM) | > 500 µg/mL | > 500 µg/mL | > 500 µg/mL | > 500 µg/mL | > 500 µg/mL | > 500 µg/mL | > 500 µg/mL | > 500 µg/mL | > 500 µg/mL | –
CC[C@H](C)C[C@H](C)CCCCCCCCC(=O)N[C@H]1C[C@@H](O)[C@@H](NCCN)NC(=O)[C@@H]2[C@@H](O)CCN2C(=O)[C@H]([C@H](O)CCN)NC(=O)[C@H]([C@H](O)[C@@H](O)c2ccc(O)cc2)NC(=O)[C@@H]2C[C@@H](O)CN2C(=O)[C@H]([C@@H](C)O)NC1=O [CASPOFUNGIN] | 0.0625 µg/mL (≈ 0.0572 µM) | – | – | – | – | 4 µg/mL (≈ 3.66 µM) | 0.5 µg/mL (≈ 0.457 µM) | – | 0.0625 µg/mL (≈ 0.0572 µM) | – | – | – | – | – | MIC (Pichia kudriavzevii [15]): 0.25 µg/mL; MIC (Candida tropicalis [16]): 0.25 µg/mL; MIC (Nakaseomyces glabratus [17]): 1 µg/mL; MIC (Candida albicans [18]): 15.6 µg/mL
COC(=O)CCNCCCCCCCCCCCCOCCCc1cccnc1 | 160 µg/mL (≈ 393 µM) | 250 µg/mL (≈ 615 µM) | > 500 µg/mL | 250 µg/mL (≈ 615 µM) | 160 µg/mL (≈ 393 µM) | 250 µg/mL (≈ 615 µM) | 160 µg/mL (≈ 393 µM) | 250 µg/mL (≈ 615 µM) | 250 µg/mL (≈ 615 µM) | 160 µg/mL (≈ 393 µM) | 250 µg/mL (≈ 615 µM) | 250 µg/mL (≈ 615 µM) | 250 µg/mL (≈ 615 µM) | 250 µg/mL (≈ 615 µM) | MFC (Pichia kudriavzevii [19]; read-out: MFC99.9): 250 µg/mL (≈ 615 µM); MFC (Candida albicans [20]; read-out: MFC99.9): > 500 µg/mL; MFC (Candida albicans [21]; read-out: MFC99.9): 250 µg/mL (≈ 615 µM); MFC (Candida albicans [22]; read-out: MFC99.9): 250 µg/mL (≈ 615 µM); MFC (Candida albicans [23]; read-out: MFC99.9): 250 µg/mL (≈ 615 µM); MFC (Candida albicans [24]; read-out: MFC99.9): > 500 µg/mL; MFC (Candida albicans [25]; read-out: MFC99.9): 250 µg/mL (≈ 615 µM); MFC (Nakaseomyces glabratus [26]; read-out: MFC99.9): 160 µg/mL (≈ 393 µM); MFC (Candida albicans [27]; read-out: MFC99.9): 250 µg/mL (≈ 615 µM); MFC (Candida albicans [28]; read-out: MFC99.9): 250 µg/mL (≈ 615 µM); MFC (Candida albicans [29]; read-out: MFC99.9): 160 µg/mL (≈ 393 µM)
NYSTATIN | 2 µg/mL | 4 µg/mL | 4 µg/mL | 4 µg/mL | – | 4 µg/mL | 4 µg/mL | 4 µg/mL | 8 µg/mL | 2 µg/mL | 4 µg/mL | 4 µg/mL | 4 µg/mL | 2 µg/mL | MFC99.9 (Pichia kudriavzevii [19]): 8 µg/mL; MFC99.9 (Candida albicans [20]): 4 µg/mL; MFC99.9 (Candida albicans [21]): 4 µg/mL; MFC99.9 (Candida tropicalis [5]): 2 µg/mL; MIC (Pichia kudriavzevii [30]): 31.2 µg/mL; MFC99.9 (Candida albicans [31]): 4 µg/mL; MFC99.9 (Candida albicans [22]): 4 µg/mL; MIC (Nakaseomyces glabratus [32]): 31.2 µg/mL; MIC (Candida albicans [33]): 31.2 µg/mL; MIC (Candida tropicalis [34]): 3.9 µg/mL; MFC99.9 (Candida albicans [23]): 4 µg/mL; MFC99.9 (Candida albicans [24]): 4 µg/mL; MFC99.9 (Candida albicans [25]): 4 µg/mL; MFC99.9 (Nakaseomyces glabratus [26]): 4 µg/mL; MFC99.9 (Candida albicans [27]): 4 µg/mL; inhibition (Candida albicans [35]): 25%; MFC99.9 (Candida albicans [28]): 4 µg/mL; MFC99.9 (Candida albicans [29]): 2 µg/mL
